Results taken from ChEMBL document CHEMBL5724914, “Linking interpersonal differences in gut microbiota composition and drug biotransformation activity” (2024).

Experiments:
[1] = (§1) The drug is tested on Z-027 corresponding to metagenome with ENA study accession number: PRJEB37062 and ENA sample accession number: ERS12561826 for biotransformation under anaerobic condition. The drug concentrations were measured over 9 timepoints collected between 0 and 24 hours of incubation by liquid-chromatography-coupled mass spectrometry (LC–MS); details: 2 µM
[2] = human gut metagenome, 24 h, 2 µM
[3] = human gut metagenome, 24 h, 2 µM; remark: listed apart in the source
[4] = (§2) The drug is tested on Z-011 corresponding to mouse gut metagenome with ENA study accession number: PRJEB37062 and ENA sample accession number: ERS12561811 for biotransformation under anaerobic condition. The drug concentrations were measured over 9 timepoints collected between 0 and 24 hours of incubation by liquid-chromatography-coupled mass spectrometry (LC–MS); details: 2 µM
[5] = as §2, with “Z-025” for “Z-011”, “rabbit” for “mouse”, “ERS12561824” for “ERS12561811”; details: 2 µM
[6] = human gut metagenome, 24 h, 2 µM; remark: listed apart in the source
[7] = human gut metagenome, 24 h, 2 µM; remark: listed apart in the source
[8] = as §2, with “WLS-038” for “Z-011”, “human” for “mouse”, “ERS12561745” for “ERS12561811”; details: 2 µM
[9] = human gut metagenome, 24 h, 2 µM; remark: listed apart in the source
[10] = as §2, with “Z-007” for “Z-011”, “rat” for “mouse”, “ERS12561807” for “ERS12561811”; details: 2 µM
[11] = as §2, with “WLS-310” for “Z-011”, “human” for “mouse”, “ERS12561785” for “ERS12561811”; details: 2 µM
[12] = as §1, with “Z-012” for “Z-027”, “ERS12561812” for “ERS12561826”; details: 2 µM
[13] = as §2, with “Z-001” for “Z-011”, “ERS12561801” for “ERS12561811”; details: 2 µM
[14] = human gut metagenome, 24 h, 2 µM; remark: listed apart in the source
[15] = as §2, with “Z-014” for “Z-011”, “rat” for “mouse”, “ERS12561814” for “ERS12561811”; details: 2 µM
[16] = as §2, with “WLS-240” for “Z-011”, “human” for “mouse”, “ERS12561773” for “ERS12561811”; details: 2 µM
[17] = as §2, with “WLS-007” for “Z-011”, “human” for “mouse”, “ERS12561742” for “ERS12561811”; details: 2 µM
[18] = human gut metagenome, 24 h, 2 µM; remark: listed apart in the source
[19] = human gut metagenome, 24 h, 2 µM; remark: listed apart in the source
[20] = human gut metagenome, 24 h, 2 µM; remark: listed apart in the source
Also: call rule not given here.

Structure (SMILES) | Bacterial Biotransformation [1] | Bacterial Biotransformation [2] | Bacterial Biotransformation [3] | Bacterial Biotransformation [4] | Bacterial Biotransformation [5] | Bacterial Biotransformation [6] | Bacterial Biotransformation [7] | Bacterial Biotransformation [8] | Bacterial Biotransformation [9] | Bacterial Biotransformation [10] | Bacterial Biotransformation [11] | Bacterial Biotransformation [12] | Bacterial Biotransformation [13] | Bacterial Biotransformation [14] | Bacterial Biotransformation [15] | Bacterial Biotransformation [16] | Bacterial Biotransformation [17] | Bacterial Biotransformation [18] | Bacterial Biotransformation [19] | Bacterial Biotransformation [20]
O=C1[C@H](CC[C@H](O)c2ccc(F)cc2)[C@@H](c2ccc(O)cc2)N1c1ccc(F)cc1 [EZETIMIBE] | Compound NOT metabolized | Compound metabolized | Compound NOT metabolized | Compound NOT metabolized | Compound NOT metabolized | Compound NOT metabolized | Compound NOT metabolized | Compound NOT metabolized | Compound NOT metabolized | Compound NOT metabolized | Compound NOT metabolized | Compound NOT metabolized | Compound NOT metabolized | Compound NOT metabolized | Compound NOT metabolized | Compound metabolized | Compound metabolized | Compound NOT metabolized | Compound NOT metabolized | Compound NOT metabolized
CNC(=C[N+](=O)[O-])NCCSCc1csc(CN(C)C)n1 [NIZATIDINE] | Compound NOT metabolized | Compound metabolized | Compound metabolized | Compound metabolized | Compound NOT metabolized | Compound metabolized | Compound NOT metabolized | Compound NOT metabolized | Compound metabolized | Compound NOT metabolized | Compound metabolized | Compound NOT metabolized | Compound NOT metabolized | Compound metabolized | Compound NOT metabolized | Compound NOT metabolized | Compound NOT metabolized | Compound metabolized | Compound metabolized | Compound metabolized
OC(Cn1cncn1)(Cn1cncn1)c1ccc(F)cc1F [FLUCONAZOLE] | Compound NOT metabolized | Compound metabolized | Compound metabolized | Compound NOT metabolized | Compound NOT metabolized | Compound metabolized | Compound NOT metabolized | Compound NOT metabolized | Compound NOT metabolized | Compound NOT metabolized | Compound metabolized | Compound NOT metabolized | Compound NOT metabolized | Compound metabolized | Compound NOT metabolized | Compound metabolized | Compound metabolized | Compound metabolized | Compound metabolized | Compound metabolized
Nc1ccc(/N=N/c2ccccc2)c(N)n1 [PHENAZOPYRIDINE] | Compound metabolized | Compound metabolized | Compound metabolized | Compound metabolized | Compound metabolized | Compound metabolized | Compound metabolized | Compound metabolized | Compound metabolized | Compound metabolized | Compound metabolized | Compound metabolized | Compound metabolized | Compound metabolized | Compound metabolized | Compound metabolized | Compound metabolized | Compound metabolized | Compound metabolized | Compound metabolized
O=C(O)CCc1nc(-c2ccccc2)c(-c2ccccc2)o1 [OXAPROZIN] | Compound metabolized | Compound metabolized | Compound metabolized | Compound NOT metabolized | Compound metabolized | Compound metabolized | Compound metabolized | Compound metabolized | Compound NOT metabolized | Compound NOT metabolized | Compound metabolized | Compound NOT metabolized | Compound NOT metabolized | Compound metabolized | Compound NOT metabolized | Compound metabolized | Compound metabolized | Compound metabolized | Compound metabolized | Compound metabolized
Cc1ccc(-c2cc(C(F)(F)F)nn2-c2ccc(S(N)(=O)=O)cc2)cc1 [CELECOXIB] | Compound NOT metabolized | Compound metabolized | Compound metabolized | Compound NOT metabolized | Compound NOT metabolized | Compound NOT metabolized | Compound NOT metabolized | Compound metabolized | Compound metabolized | Compound NOT metabolized | Compound NOT metabolized | Compound NOT metabolized | Compound NOT metabolized | Compound metabolized | Compound NOT metabolized | Compound metabolized | Compound metabolized | Compound metabolized | Compound NOT metabolized | Compound metabolized
CCc1nc(N)nc(N)c1-c1ccc(Cl)cc1 [PYRIMETHAMINE] | Compound NOT metabolized | Compound metabolized | Compound metabolized | Compound NOT metabolized | Compound NOT metabolized | Compound NOT metabolized | Compound NOT metabolized | Compound NOT metabolized | Compound NOT metabolized | Compound NOT metabolized | Compound NOT metabolized | Compound NOT metabolized | Compound NOT metabolized | Compound NOT metabolized | Compound NOT metabolized | Compound metabolized | Compound metabolized | Compound NOT metabolized | Compound NOT metabolized | Compound NOT metabolized
CN(C)CC(c1ccc(O)cc1)C1(O)CCCCC1.O=C(O)CCC(=O)O (stereo not given) [DESVENLAFAXINE SUCCINATE] | Compound NOT metabolized | Compound NOT metabolized | Compound NOT metabolized | Compound NOT metabolized | Compound NOT metabolized | Compound NOT metabolized | Compound NOT metabolized | Compound NOT metabolized | Compound NOT metabolized | Compound NOT metabolized | Compound NOT metabolized | Compound NOT metabolized | Compound NOT metabolized | Compound NOT metabolized | Compound NOT metabolized | Compound NOT metabolized | Compound NOT metabolized | Compound NOT metabolized | Compound NOT metabolized | Compound NOT metabolized
